Earlier results as cited in patent publication US11576924B2, “Compounds for the prevention and treatment of diseases and the use thereof” (Galectin Sciences, LLC, priority 2017, dated 2023).

Key:
lung fibrosis = details: pulmonary administration (intra-tracheal instillation or nebulizers)
galectin 3 = galectin 3 (Homo sapiens, UniProt P17931)
Chain of galectin 3 (P17931 whole entry, species assumed): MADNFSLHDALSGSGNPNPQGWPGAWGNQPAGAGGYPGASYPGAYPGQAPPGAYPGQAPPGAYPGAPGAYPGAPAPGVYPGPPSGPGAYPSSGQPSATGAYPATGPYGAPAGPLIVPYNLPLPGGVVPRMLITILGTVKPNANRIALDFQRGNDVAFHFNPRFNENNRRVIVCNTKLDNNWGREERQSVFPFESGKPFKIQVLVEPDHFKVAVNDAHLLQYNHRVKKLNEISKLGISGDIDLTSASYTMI

## OC[C@H]1O[C@@H](S[C@@H]2O[C@H](CO)[C@H](O)[C@H](n3cc(-c4cccc(F)c4)nn3)[C@H]2O)[C@H](O)[C@@H](n2cc(-c3cccc(F)c3)nn2)[C@H]1O [TD-139]
Lung fibrosis
  efficacy in mouse model of lung fibrosis: effective in a mouse model of lung fibrosis
Galectin 3
  binding to galectin 3: bind to galectin 3
